# Measurements: patent US20230157296A1, “METHODS OF REDUCING FUSARIUM CONTAMINATION” (Taminco BV, priority 2020, published 2023)
# System: F. oxysporum f. sp. cubense (Foc TR4)
# Experiment: Panama disease analysis of soil samples after metam sodium field injection
# Format: in vivo, Fusarium oxysporum f. sp. Cubense Tropical Race 4
# Experimental: Metam Sodium Application. Metam sodium 510 SL (equivalent to 42% w/w) was applied to soil at the following doses: 0 liters per hectare (L/ha), 750 L/ha, 1500 L/ha, 2250 L/ha, 3000 L/ha.
# Prior to injection, soil was prepared using a rototiller to break the soil structure from 0 cm to 80 cm deep, allowing for the smooth and even injection application by an injection machine. The soil was then leveled and made uniform, and the metam sodium was applied at two depths: 30 cm and 60 cm, using injection methods. The temperature was at a minimum of 10° C. and soil humidity was between 50 and 60% holding capacity, allowing the applied product to transform from metam sodium (liquid) to MITC (gas).
# The application was made using an injection machine wherein the machine lowered shanks and began moving forward such that the shanks lowered to a depth of 60 cm and injectors applied the metam sodium into the soil. When the injection at 60 cm was complete, the process was repeated for the entire field at 30 cm. The treated soil in the field was then sealed using a packer roller (which was part of the injection machinery, located at the back end of the machine), after each application.
# Soil Analysis. Soil samples were obtained at 20, 40, and 60 cm before application and every 24 hours beginning 48 hours after application, for seven days.
# Plant Pathology Analysis. Soil samples used for Panama Disease and nematode analyses were aseptically isolated in culture medium and incubated for seven days at room temperature. Organisms were identified as follows: 20 grams of composite soil sample was diluted with 40 mL distilled water (dH2O); 1 drop of Tween 20 detergent was added, and the sample mixed. A 1 mL aliquot was taken from the solution and diluted with 9 mL dH2O; three further serial dilutions were made. From each dilution, 100 µL were spread on solid Komada growth medium (Sun et al., Phytopathology 68: 1672-1673, 1978). Growth could be seen 7 days after inoculation.
smiles,measurement,setting,value
"CNC(=S)[S-].[Na+] [metam sodium, sodium N-methyldithiocarbamate]",Panama Disease F. oxysporum f. sp. cubense,"Day 3, 40 cm, T5 3000 L/ha",-
same,Panama Disease F. oxysporum f. sp. cubense,"Day 3, 60 cm, T2 750 L/ha",-
same,Panama Disease F. oxysporum f. sp. cubense,"Day 3, 60 cm, T3 1500 L/ha",-
same,Panama Disease F. oxysporum f. sp. cubense,"Day 3, 60 cm, T4 2250 L/ha",-
same,Panama Disease F. oxysporum f. sp. cubense,"Day 3, 60 cm, T5 3000 L/ha",-
same,Panama Disease F. oxysporum f. sp. cubense,"Day 4, 20 cm, T2 750 L/ha",-
same,Panama Disease F. oxysporum f. sp. cubense,"Day 4, 20 cm, T3 1500 L/ha",-
same,Panama Disease F. oxysporum f. sp. cubense,"Day 4, 20 cm, T4 2250 L/ha",-
same,Panama Disease F. oxysporum f. sp. cubense,"Day 4, 20 cm, T5 3000 L/ha",-
same,Panama Disease F. oxysporum f. sp. cubense,"Day 4, 40 cm, T2 750 L/ha",-
same,Panama Disease F. oxysporum f. sp. cubense,"Day 4, 40 cm, T3 1500 L/ha",-
same,Panama Disease F. oxysporum f. sp. cubense,"Day 4, 40 cm, T4 2250 L/ha",-
same,Panama Disease F. oxysporum f. sp. cubense,"Day 4, 40 cm, T5 3000 L/ha",-
same,Panama Disease F. oxysporum f. sp. cubense,"Day 4, 60 cm, T2 750 L/ha",-
same,Panama Disease F. oxysporum f. sp. cubense,"Day 4, 60 cm, T3 1500 L/ha",-
same,Panama Disease F. oxysporum f. sp. cubense,"Day 4, 60 cm, T4 2250 L/ha",-
same,Panama Disease F. oxysporum f. sp. cubense,"Day 4, 60 cm, T5 3000 L/ha",-
same,Panama Disease F. oxysporum f. sp. cubense,"Day 5, 20 cm, T2 750 L/ha",-
same,Panama Disease F. oxysporum f. sp. cubense,"Day 5, 20 cm, T3 1500 L/ha",-
same,Panama Disease F. oxysporum f. sp. cubense,"Day 5, 20 cm, T4 2250 L/ha",-
same,Panama Disease F. oxysporum f. sp. cubense,"Day 5, 20 cm, T5 3000 L/ha",-
same,Panama Disease F. oxysporum f. sp. cubense,"Day 5, 40 cm, T2 750 L/ha",-
same,Panama Disease F. oxysporum f. sp. cubense,"Day 5, 40 cm, T3 1500 L/ha",-
same,Panama Disease F. oxysporum f. sp. cubense,"Day 5, 40 cm, T4 2250 L/ha",-
same,Panama Disease F. oxysporum f. sp. cubense,"Day 5, 40 cm, T5 3000 L/ha",-
same,Panama Disease F. oxysporum f. sp. cubense,"Day 5, 60 cm, T2 750 L/ha",-
same,Panama Disease F. oxysporum f. sp. cubense,"Day 5, 60 cm, T3 1500 L/ha",-
same,Panama Disease F. oxysporum f. sp. cubense,"Day 5, 60 cm, T4 2250 L/ha",-
same,Panama Disease F. oxysporum f. sp. cubense,"Day 5, 60 cm, T5 3000 L/ha",-
same,Panama Disease F. oxysporum f. sp. cubense,"Day 6, 20 cm, T2 750 L/ha",-
same,Panama Disease F. oxysporum f. sp. cubense,"Day 6, 20 cm, T3 1500 L/ha",-
same,Panama Disease F. oxysporum f. sp. cubense,"Day 6, 20 cm, T4 2250 L/ha",-
same,Panama Disease F. oxysporum f. sp. cubense,"Day 6, 20 cm, T5 3000 L/ha",-
same,Panama Disease F. oxysporum f. sp. cubense,"Day 6, 40 cm, T2 750 L/ha",-
same,Panama Disease F. oxysporum f. sp. cubense,"Day 6, 40 cm, T3 1500 L/ha",-
same,Panama Disease F. oxysporum f. sp. cubense,"Day 6, 40 cm, T4 2250 L/ha",-
same,Panama Disease F. oxysporum f. sp. cubense,"Day 6, 40 cm, T5 3000 L/ha",-
same,Panama Disease F. oxysporum f. sp. cubense,"Day 6, 60 cm, T2 750 L/ha",-
same,Panama Disease F. oxysporum f. sp. cubense,"Day 6, 60 cm, T3 1500 L/ha",-
same,Panama Disease F. oxysporum f. sp. cubense,"Day 6, 60 cm, T4 2250 L/ha",-
same,Panama Disease F. oxysporum f. sp. cubense,"Day 6, 60 cm, T5 3000 L/ha",-
same,Panama Disease F. oxysporum f. sp. cubense,"Day 7, 20 cm, T2 750 L/ha",-
same,Panama Disease F. oxysporum f. sp. cubense,"Day 7, 20 cm, T3 1500 L/ha",-
same,Panama Disease F. oxysporum f. sp. cubense,"Day 7, 20 cm, T4 2250 L/ha",-
same,Panama Disease F. oxysporum f. sp. cubense,"Day 7, 20 cm, T5 3000 L/ha",-
same,Panama Disease F. oxysporum f. sp. cubense,"Day 7, 40 cm, T2 750 L/ha",-
same,Panama Disease F. oxysporum f. sp. cubense,"Day 7, 40 cm, T3 1500 L/ha",-
same,Panama Disease F. oxysporum f. sp. cubense,"Day 7, 40 cm, T4 2250 L/ha",-
same,Panama Disease F. oxysporum f. sp. cubense,"Day 7, 40 cm, T5 3000 L/ha",-
same,Panama Disease F. oxysporum f. sp. cubense,"Day 7, 60 cm, T2 750 L/ha",-
same,Panama Disease F. oxysporum f. sp. cubense,"Day 7, 60 cm, T3 1500 L/ha",-
same,Panama Disease F. oxysporum f. sp. cubense,"Day 7, 60 cm, T4 2250 L/ha",-
same,Panama Disease F. oxysporum f. sp. cubense,"Day 7, 60 cm, T5 3000 L/ha",-
same,soil contamination: Foc TR4 detection,"any of the treated groups (750-3000 L/ha), any day post application",No Foc TR4 was detected
